# Test results reported in patent EP0080940B1, “Derivatives of 2-phenyl-morpholine and medical compositions” (LABORATOIRE L. LAFON Société anonyme dite:, priority 1981, dated 1983).
# Tests used:
# souris mâle [1] = test: Acute toxicity by the i.p. route (DL-0, DL-50); type: in vivo; settings: voie i.p.
# Protocol: (§1) On a résumé ci-après les résultats des essais qui ont été entrepris chez l'animal avec le CRL 40914, ce produit étant administré, sauf indications contraires, en solution dans l'eau (à pH 5) par voie intrapéritonéale sous un volume de 20 ml/kg chez la souris mâle et de 5 ml/kg chez le rat mâle.
# Chez la souris mâle, la DL-0 (dose maximale non mortelle) par voie i.p. est supérieure à 128 mg/kg.
# (§2) On a résumé ci-après les résultats des essais qui ont été entrepris chez l'animal avec le CRL 40915, les modalités opératoires étant celles données ci-dessus pour le CR L 40914.
# Chez la souris mâle, la DL-0 (dose maximale non mortelle) par voie i.p. est supérieure à 256 mg/kg, et la DL-50 par voie i.p. est de l'ordre de 500 mg/kg environ.
# rat = test: Global behaviour and reactivity, rat; type: in vivo
# Protocol: as §1
# Des lots de 3 animaux sont observés avant, puis 15 min, 30 min, 1 h, 2 h, 3 h et 24 h après l'administration de CRL 40914. On observe ce qui suit:
# as §2
# souris [2] = test: Action on rectal temperature; type: in vivo
# Protocol: as §1
# Des lots de 6 souris reçoivent le CRL 40914; la température rectale est notée toutes les 30 min.
# rats [3] = test: Interaction with apomorphine, rat; type: in vivo; settings: apomorphine 0,5 mg/kg s.c.
# Protocol: Le CRL 40914 est administré aux rats une demi-heure avant l'injection sous-cutanée de 0,5 mg/kg d'apomorphine.
# as §2
# rats [4] = test: Interaction with amphetamine; type: in vivo; settings: rat, 8 mg/kg et 32 mg/kg i.p., amphétamine 2 mg/kg i.p.
# Protocol: L'amphétamine (2 mg/kg) est injectée par voie intrapéritonéale à des lots de 12 rats, une demi-heure après l'administration de CRL 40914.
# as §2
# souris [5] = test: Interaction with reserpine; type: in vivo; settings: 4 mg/kg mais surtout 16 mg/kg et 64 mg/kg i.p., 4 h après réserpine 2,5 mg/kg i.p.
# Protocol: Quatre heures après l'injection intrapéritonéale de 2,5 mg/kg de réserpine, des lots de 6 souris reçoivent le CRL 40914.
# as §2
# souris [6] = test: Action on spontaneous motility (actimeter); type: in vivo
# Protocol: Une demi-heure après avoir reçu le CRL 40914, des souris sont placées en actimètre où leur motilité est enregistrée pendant 30 min.
# as §2
# souris [7] = test: Motility reduced by hypoxic aggression; type: in vivo; settings: i.p., anoxie hypobare aiguë
# Protocol: Une demi-heure après avoir reçu le CRL 40914, les souris (10 par dose, 20 témoins) sont soumises à une anoxie hypobare aiguë [dépression de 600 mm Hg (soit environ 8 x10^4 pascals) en 90 s puis détente de 45 s] puis elles sont placées en actimètre où leur motilité est enregistrée pendant 10min.
# as §2
# souris [8] = test: Asphyxic anoxia (gallamine triethiodide); type: in vivo
# Protocol: Des lots de 10 souris reçoivent le CRL 40914 une demi-heure avant l'administration intrapéritonéale de 32 mg/kg de triiodoéthylate de gallamine (agent curarisant de référence).
# as §2
# souris [9] = test: Interaction with barbital; type: in vivo; settings: barbital sodique 220 mg/kg i.p.
# Protocol: Des lots de 10 souris reçoivent le CRL 40914 une demi-heure avant l'injection intrapéritonéale de 220 mg/kg de barbital sodique.
# souris [10] = test: Behavioural despair (immobility in water); type: in vivo; settings: souris en immersion, dès 4 mg/kg i.p.; effet particulièrement net à 64 mg/kg
# Text: Une demi-heure après avoir reçu le CRL 40914 ou la désipramine, des lots de 10 souris sont plongés dans un bécher rempli d'eau sur une hauteur de 6 cm. On note la durée d'immobilité de la souris entre la 2ème et la 6ème min suivant son immersion.
# souris [11] = test: Interaction with yohimbine, temperature; type: in vivo; settings: 1 mg/kg et 16 mg/kg de CRL 40914, yohimbine 0,5 mg/kg i.p. une demi-heure avant
# Protocol: Des lots de 12 souris reçoivent une injection intrapéritonéale de 0,5 mg/kg de yohimbine, une demi-heure avant l'administration de CRL 40914.
# souris [12] = test: Interaction with yohimbine, spontaneous motility; type: in vivo; settings: yohimbine 0,5 mg/kg i.p.
# Protocol: Des lots de 12 souris reçoivent la yohimbine (0,5 mg/kg i.p.) et le CRL 40914 respectivement 60 et 30 min avant d'être placées en actimètre où leur motilité est enregistrée pendant une demi-heure.
# souris mâle [13] = test: Action on intergroup aggressiveness; type: in vivo
# Protocol: Cet effet pourrait résulter de la sédation qui se manifeste à faible dose (4 mg/kg) et de l'excitation motrice qui se manifeste à forte dose (64 mg/kg).
# [14] = system: rats génétiquement hypertendus; test: Action on the cardiovascular system; type: in vivo, rat; settings: 20 mg/kg par voie buccale
# Protocol: Six rats génétiquement hypertendus à cathéter artériel fémoral implanté reçoivent le CRL 40914 à la dose de 20 mg/kg par voie buccale.
# [15] = souris, 0,25 mg/kg, 1 mg/kg, 4 mg/kg et 16 mg/kg i.p.
compound,measurement,setting,value
"CCN1CCOC(c2ccccc2)C1 (stereo not shown) [CRL 40914, Chlorhydratede 2-phényl-4-éthyl-morpholine]",DL-0 (dose maximale non mortelle),souris mâle [1],> 128 mg/kg
same,mydriase,"rat; rat, 0,5 mg/kg i.p.",mydriase pendant 1 à 2 h
same,mydriase,"rat; rat, 2 mg/kg i.p.",mydriase pendant 1 à 2 h
same,sédation,"rat; rat, 2 mg/kg i.p.",sédation pendant 1 h
same,mydriase,"rat; rat, 8 mg/kg i.p.",mydriase pendant 2 h
same,piloérection,"rat; rat, 8 mg/kg i.p.",piloérection pendant 1 à 2 h
same,sédation,"rat; rat, 8 mg/kg i.p.",sédation pendant 2 h avec diminution de la réactivité au toucher mais augmentation de la réaction de peur
same,mydriase,"rat; rat, 32 mg/kg i.p.",mydriase pendant plus de 3 h
same,"piloérection, salivation et lacrymation","rat; rat, 32 mg/kg i.p.","piloérection (pendant 3 h), salivation (pendant 1 h) et lacrymation (pendant 1 h)"
same,réaction de peur,"rat; rat, 32 mg/kg i.p.",augmentation de la réaction de peur pendant 3 h
same,sédation,"rat; rat, 32 mg/kg i.p.",sédation pendant 3 h avec diminution de la réactivité au toucher et du tonus musculaire
same,durée de l'hypothermie,souris [2]; [15],90 à 120 min
same,température rectale,souris [2]; [15],hypothermie maximale après 30 min
same,température rectale,"souris [2]; souris, 64 mg/kg i.p.",hyperthermie qui apparaît à 30 min et qui fait ensuite place à une hypothermie modérée
same,stéréotypies induites par l'apomorphine,"rats [3]; rat, 0,5 mg/kg, 2 mg/kg et 8 mg/kg i.p.",semble diminuer modérément l'intensité des téréotypies induites par l'apomorphine
same,stéréotypies induites par l'apomorphine,"rats [3]; rat, 32 mg/kg i.p.",potentialisation discrète des stéréotypies
same,stéréotypies amphétaminiques,rats [4],diminue nettement l'intensité des téréotypies amphétaminiques
same,hypothermie et ptosis réserpiniques,souris [5],s'oppose à l'hypothermie et au ptosis réserpinique
same,activité motrice spontanée,souris [6]; 64 mg/kg i.p.,hyperactivité nette
same,activité motrice spontanée,"souris [6]; dès 0,125 mg/kg i.p., maximum entre 0,5 mg/kg et 16 mg/kg",diminution de l'activité motrice spontanée
same,activité motrice après agression hypoxique,souris [7],modifications de l'activité motrice qui reflètent son action sur la motilité spontanée
same,apparition des convulsions et de la mort (anoxie asphyxique),"souris [8]; 1 mg/kg, 4 mg/kg et 16 mg/kg i.p., triiodoéthylate de gallamine 32 mg/kg i.p.","retard d'apparition des convulsions et, à un degré moindre, de la mort"
same,apparition des convulsions et de la mort (anoxie asphyxique),souris [8]; dose plus élevée (above 16 mg/kg) i.p.,cet effet disparaît
same,durée du sommeil induit par le barbital,souris [9]; 4 mg/kg et 16 mg/kg i.p.,semble prolonger modérément la durée du sommeil induit par le barbital
same,durée du sommeil induit par le barbital,souris [9]; 64 mg/kg i.p.,antagonisme net
same,durée d'immobilité,souris [10],diminue la durée d'immobilité
same,hypothermie induite par le CRL 40914 après yohimbine,souris [11],empêche l'apparition de l'hypothermie
same,hypomotilité produite par le CRL 40914 après yohimbine,souris [12]; CRL 40914 1 mg/kg,s'oppose à l'hypomotilité
same,hypomotilité produite par le CRL 40914 après yohimbine,souris [12]; CRL 40914 16 mg/kg,ne modifie pas celle provoquée par 16 mg/kg
same,combats (agressivité intergroupe),souris mâle [13]; 4 mg/kg,supprime les combats entre les souris de 2 groupes différents
same,durée de contact entre les souris (agressivité intergroupe),souris mâle [13]; 64 mg/kg,diminue la durée de contact entre les souris
same,effet sur la pression artérielle,[14],modérément hypotenseur
same,temps de l'effet maximal sur la pression artérielle,[14],7 h
same,variation de la pression artérielle,[14]; 7 h après,-18%
same,pression artérielle (effet maximal),"[14]; 7 h après, valeur initiale 165",135 mm Hg
same,pression artérielle et fréquence cardiaque après 24 h,[14]; 24 h,sont revenues à leur valeur témoin
same,fréquence cardiaque (minimum),"[14]; après 1,5 h, valeur initiale 350",270 battements/minute
